Assay [1] addresses hROMK (hKir1.1) (Homo sapiens (Human), UniProt P48048). Kind of assay: Thallium Flux Assay (ROMK channel functional thallium flux, FLIPR-Tetra). It is filed as cell-based. The conditions noted are these: HEK293 cells stably expressing hROMK (hKir1.1). As for the experimental part:
HEK293 cells stably expressing hROMK (hKir1.1) were grown at 37° C. in a 10% CO2 humidified incubator in complete growth media: Dulbecco's Modified Eagle Medium supplemented with non-essential amino acids, Penicillin/Streptomycin/Glutamine, G418 and FBS. At >80% confluency, aspirate the media from the flask and rinse with 10 mL Calcium/Magnesium-free PBS. Add 5 mL of 1× trypsin (prepared in Ca/Mg Free PBS) to T-225 flask and return flask to 37° C./CO2 incubator for 2-3 minutes. To dislodge the cell, gently bang the side of the flask with your hand. Triturate the cells completely and then transfer the cells to 25 mL complete media. Centrifuge at 1,500 rpm for 6 min followed by resuspension in complete growth media and determine cell concentration. For typical re-seeding, 4E6 cells/T-225 flask will attain>80% confluency in 4 days. Under ideal growth conditions and appropriate tissue culture practices, this cell line is stable for 40-45 passages.
• FluxOR™ Reagent (Component A) • FluxOR™ Assay Buffer (Component B)—10× Concentrate • PowerLoad™ Concentrate (Component C)—100× Concentrate • Probenecid (Component D)—Lyophilized sample is kept at −20° C. Water soluble, 100× after solubilization in 1 mL water. Store at 4° C. • FluxOR™ Chloride-free Buffer (Component E)—5× Concentrate • Potassium sulfate (K2SO4) Concentrate (Component F)—125 mM in water. Store at 4° C. • Thallium sulfate (Tl2SO4) Concentrate (Component G)—50 mM in water. Store at 4° C. • DMSO (dimethyl sulfoxide, Component H)—1 mL (100%) Reagent Preparation: FluxOR Working Solutions • 1000× FluxOR™ Reagent: Reconstitute a vial of component A in 100 μl DMSO; Mix well; Store 10 μl aliquots at −20° C. • 1× FluxOR™ Assay Buffer: Dilute Component B 10-fold with water; Adjust pH to 7.4 with Hepes/NaOH; Filter and store at 4° C. • Probenecid/Assay Buffer: 100 mL of 1× FluxOR™ Assay Buffer; 1 mL of reconstituted component D; Store at 4° C. • Loading Buffer (per microplate): 10 μl 1000× FluxOR™ Reagent; 100 μl component C; 10 mL Probenecid/Assay Buffer • Compound Buffer (per microplate): 20 mL Probenecid/Assay Buffer; 0.3 mM ouabain (10 mM ouabain in water can be stored in amber bottle/aluminum foil at room temperature); Test compound • 1× FluxOR™ Chloride-Free Buffer: Prepare 1× working solution in water. Can be stored at room temperature • Stimulant Buffer (prepared at 5× final concentration in 1× FluxOR™ Chloride-Free Buffer): 7.5 mM Thallium sulfate and 0.75 mM Potassium sulfate (to give a final assay concentration of 3 mM Thallium/0.3 mM Potassium). Store at 4° C. when not in use. If kept sterile, this solution is good for months. Assay Protocol—
The ROMK channel functional thallium flux assay is performed in 384 wells, using the FLIPR-Tetra instrument. HEK-hKir1.1 cells are seeded in Poly-D-Lysine microplates and kept in a 37° C.-10% CO2 incubator overnight. On the day of the experiment, the growth media is replaced with the FluxOR™ reagent loading buffer and incubated, protected from light, at ambient temperature (23-25° C.) for 90 min. The loading buffer is replaced with assay buffer±test compound followed by 30 min incubation at ambient temperature, where the Thallium/Potassium stimulant is added to the microplate.
• 1. Seed HEK-hKir1.1 cells (50 μl at 20,000 cells/well) in 384-well PDL coated Microplates • 2. Allow cells to adhere overnight in humidified 37° C./10% CO2 incubator • 3. Completely remove cell growth media from microplate and replace with 25 μl loading buffer • 4. Incubate Microplate at room temperature, protected form light, for 90 min • 5. Remove loading buffer and replace with 25 μl 1× Assay Buffer±test compound. • 6. Incubate microplate at room temperature, protected form light, for 30 min • 7. At FLIPR-Tetra 384: Add stimulant (Thallium/Potassium) solution to microplate and monitor fluorescence. Excitation=400 nm, Emission=460 & 580 nm. Collect data for ˜10 min. Data Calculation—

Assay [2] concerns the target Kir1.1 (ROMK1) (Homo sapiens (Human), UniProt P48048). Kind of assay: Electrophysiology Assay (whole cell voltage clamp, IonWorks Quattro). It is filed as cell-based. The conditions noted are these: Chinese hamster ovary cells stably expressing Kir1.1; block during voltage step to 0 mV. As for the experimental part:
Block of Kir1.1 (ROMK1) currents was examined by whole cell voltage clamp (Hamill et. al. […] Prior to an experiment, Kir1.1 expression was induced by overnight incubation with 1 mM sodium butyrate. […] After centrifugation, the cell pellet was resuspended in approximately 4.0 mL of bath solution and placed in the IonWorks instrument. The intracellular solution consisted of (in mM): 80 K gluconate, 40 KCl, 20 KF, 3.2 MgCl2, 3 EGTA, 5 Hepes, pH 7.4. […] Amphotericin B (Sigma A-4888) was prepared as a 40 mg/mL solution in DMSO. Voltage protocols and current recordings were performed using the IonWorks HT software/hardware system. […] No correction for liquid junction potentials was used. The test pulse, consisting of a 100 ms step to 0 mV from a holding potential of −70 mV, followed by a 100 ms voltage ramp from −70 mV to +70 mV, was applied before and after a 6 min compound incubation period. Test compounds were prepared by diluting DMSO stock solutions into the bath solution at 3× the final concentration and placed in the instrument in 96-well polypropylene plates. Current amplitudes were measured using the IonWorks software. To assess compound potency, the fractional block during the voltage step to 0 mV was calculated in Microsoft Excel (Microsoft, Redmond, Calif.), and dose-response curves were fitted with Igor Pro 4.0 (WaveMetrics, Lake Oswego, Oreg.).
Background: In patch-clamp work, channel activity is measured electrically.

We go through 26 molecules from patent publication US9062070B2, “Inhibitors of the renal outer medullary potassium channel” (Merck Sharp & Dohme Corp., priority 2011, dated 2015).

Molecules are shown by their SMILES.

As a reminder, the IC50 is the concentration that gives 50% inhibition.

Sequence of hROMK (hKir1.1) (P48048 whole entry): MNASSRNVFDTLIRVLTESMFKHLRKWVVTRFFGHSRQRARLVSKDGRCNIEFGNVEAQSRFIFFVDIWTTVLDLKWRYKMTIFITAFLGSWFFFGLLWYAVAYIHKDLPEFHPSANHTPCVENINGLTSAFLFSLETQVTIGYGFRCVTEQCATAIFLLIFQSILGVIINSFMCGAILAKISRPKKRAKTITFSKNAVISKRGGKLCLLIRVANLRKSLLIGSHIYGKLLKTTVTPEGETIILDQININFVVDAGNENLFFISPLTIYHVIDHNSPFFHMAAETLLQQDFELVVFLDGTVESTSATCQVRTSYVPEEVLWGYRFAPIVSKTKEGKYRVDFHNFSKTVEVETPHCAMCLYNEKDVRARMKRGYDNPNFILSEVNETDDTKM
Sequence of Kir1.1 (ROMK1) (P48048 whole entry): as above

Take `Cc1c([C@@H]2CN3CCN(C(=O)C4CCc5nc(-n6cnnn6)ncc54)C[C@@H]3CO2)ccc(F)c1C#N` (single isomer, unassigned) [Example 2C]: the 50% inhibitory concentration (IC50) in assay [1] amounted to 120 nM; in assay [2], 150 nM. On to `Cc1c([C@@H]2CN3CCN(C(=O)C4CCc5nc(-n6cnnn6)ncc54)C[C@@H]3CO2)ccc(F)c1C#N` (single isomer, unassigned) [Example 2D], for which the concentration for half-maximal inhibition (IC50) in assay [1] was 130 nM; in assay [2] it was 100 nM. In assay [1], `Cc1c([C@@H]2CN3CCN(C(=O)C4CCc5nc(-n6cnnn6)ncc54)C[C@H]3CO2)ccc(F)c1C#N` (single isomer, unassigned) [Example 2E] returned a concentration for half-maximal inhibition (IC50) of 130 nM. That is a sub-micromolar value. Consider `Cc1c([C@@H]2CN3CCN(C(=O)C4CCc5nc(-n6cnnn6)ncc54)C[C@H]3CO2)ccc(F)c1C#N` (single isomer, unassigned) [Example 2F], for which, in assay [1], the IC50 stood at 390 nM. Turning to `Cc1c([C@H]2CN3CCN(C(=O)C4CCc5nc(-n6cnnn6)ncc54)C[C@H]3CO2)ccc(F)c1C#N` (single isomer, unassigned) [Example 2G], the IC50 came to 270 nM in assay [1] and 130 nM in assay [2]. Turning to `Cc1c([C@H]2CN3CCN(C(=O)C4CCc5nc(-n6cnnn6)ncc54)C[C@H]3CO2)ccc(F)c1C#N` (single isomer, unassigned) [Example 2H], the figures for the 50% inhibitory concentration (IC50) in assay [1] and in assay [2] were 140 nM and 100 nM, respectively.

As for `Cc1c([C@H]2CN3CCN(C(=O)C4CCc5cc(-n6cnnn6)ncc54)C[C@H]3CO2)ccc(F)c1C#N` (single isomer, unassigned) [Example 35], the IC50 in assay [1] is 180 nM; in assay [2], 110 nM. Taken in the same sequence, the figures for `Cc1c([C@@H]2CN3CCN(C(=O)C4CCc5cc(-n6cnnn6)ncc54)C[C@H]3CN2)ccc(F)c1C#N` (single isomer, unassigned) [Example 96A] were 200 nM and 100 nM. The matching figures for `Cc1c([C@@H]2CN3CCN(C(=O)C4CCc5cc(-n6cnnn6)ncc54)C[C@H]3CN2)ccc(F)c1C#N` (single isomer, unassigned) [Example 96B]: greater than 1000 nM and greater than 1000 nM. The matching figures for `Cc1c(C2CN3CCN(C(=O)[C@H]4CCc5nc(-n6cnnn6)ncc54)C[C@@H]3CO2)ccc(F)c1C#N` (stereo in doubt) [Example 2A, 6-Fluoro-2-methyl-3-[(3S,9aR)-8-{[(5S)-2-(1H-tetrazol-1-yl)-6,7-dihydro-5H-cyclopenta[d]pyrimidin-5-yl]carbonyl}octahydropyrazino[2,1-c][1,4]oxazin-3-yl]benzonitrile]: 220 nM and 100 nM. As for `Cc1c([C@H]2CN3CCN(C(=O)[C@@H]4CCc5nc(-n6cnnn6)ncc54)C[C@@H]3CO2)ccc(F)c1C#N` [Example 2B, 6-fluoro-2-methyl-3-[(3S,9aR)-8-{[(5R)-2-(1H-tetrazol-1-yl)-6,7-dihydro-5H-cyclopenta[d]pyrimidin-5-yl]carbonyl}octahydropyrazino[2,1-c][1,4]oxazin-3-yl]benzonitrile], the IC50 was 350 nM in assay [1] and 100 nM in assay [2]. Regarding `Cc1c([C@H]2CN3CCN(C(=O)C4CCc5nc(-n6cnnn6)ncc54)C[C@H]3CO2)ccc2c1COC2=O` (some centres unmarked) [Example 3], the figures for the IC50 in assay [1] and in assay [2] were 250 nM and 530 nM, respectively.

Turning to `Cc1c([C@H]2CN3CCN(C(=O)C4CCc5nc(-n6cnnn6)ccc54)C[C@H]3CO2)ccc(F)c1C#N` (some centres unmarked) [Example 4], the values for the IC50 in assay [1] and in assay [2] were 460 nM and 180 nM, respectively. Taken in the same sequence, the figures for `Cc1c([C@H]2CN3CCN(C(=O)C4CCc5nc(-n6cnnn6)ccc54)C[C@H]3CO2)ccc(F)c1C#N` (some centres unmarked) [Example 5] were 170 nM and 100 nM. The matching figures for `Cc1c([C@@H]2CN3CCN(C(=O)C4CCc5nc(-n6cnnn6)ccc54)C[C@H]3CO2)ccc(F)c1C#N` (some centres unmarked) [Example 6]: 240 nM and 100 nM. Taken in the same sequence, the figures for `Cc1c([C@@H]2CN3CCN(C(=O)C4CCc5nc(-n6cnnn6)ccc54)C[C@H]3CO2)ccc(F)c1C#N` (some centres unmarked) [Example 7] were 140 nM and 80 nM. For the molecule `Cc1c([C@H]2CN3CCN(C(=O)C4CCCc5nc(-n6cnnn6)ccc54)C[C@H]3CO2)ccc(F)c1C#N` (some centres unmarked) [Example 8], the values for the 50% inhibitory concentration (IC50) in assay [1] and in assay [2] were 350 nM and 240 nM, respectively. Consider `Cc1c([C@H]2CN3CCN(C(=O)C4CCCc5nc(-n6cnnn6)ccc54)C[C@H]3CO2)ccc(F)c1C#N` (some centres unmarked) [Example 9], for which the figures for the IC50 in assay [1] and in assay [2] were 610 nM and 190 nM, respectively.

Regarding `Cc1c([C@@H]2CN3CCN(C(=O)C4CCCc5nc(-n6cnnn6)ccc54)C[C@H]3CO2)ccc(F)c1C#N` (some centres unmarked) [Example 10], the values for the half-maximal inhibitory concentration (IC50) in assay [1] and in assay [2] were 410 nM and 180 nM, respectively. In the case of `Cc1c([C@@H]2CN3CCN(C(=O)C4CCCc5nc(-n6cnnn6)ccc54)C[C@H]3CO2)ccc(F)c1C#N` (some centres unmarked) [Example 11], the figures for the half-inhibitory concentration (IC50) in assay [1] and in assay [2] were 360 nM and 240 nM, respectively. Taken in the same sequence, the figures for `Cc1c([C@@H]2CN3CCN(C(=O)C4CCCc5nc(-n6cnnn6)ccc54)C[C@@H]3CO2)ccc(F)c1C#N` (some centres unmarked) [Example 12] were 450 nM and 160 nM.

As for `Cc1c([C@H]2CN3CCN(C(=O)C4CCCc5nc(-n6cnnn6)ccc54)C[C@@H]3CO2)ccc(F)c1C#N` (some centres unmarked) [Example 13], the results for the 50% inhibitory concentration (IC50) in assay [1] and in assay [2] were 320 nM and 260 nM, respectively. Turning to `O=C1OCCc2cc([C@@H]3CN4CCN(C(=O)C5CCCc6nc(-n7cnnn7)ccc65)C[C@H]4CO3)ccc21` (some centres unmarked) [Example 14], the figures for the IC50 in assay [1] and in assay [2] were 470 nM and 210 nM, respectively. Take `Cc1c(C#N)cccc1[C@@H]1CN2CCN(C(=O)C3CCc4nc(-n5cnnn5)ccc43)C[C@H]2CO1` (some centres unmarked) [Example 71]: in assay [2], the half-inhibitory concentration (IC50) was 120 nM. In assay [1], `Cc1c(C#N)cccc1[C@@H]1CN2CCN(C(=O)C3CCc4cc(-n5cnnn5)ncc43)C[C@@H]2CO1` (some centres unmarked) [Example 94] showed an IC50 of 290 nM. This counts as sub-micromolar. Consider `O=C1OCc2c1ccc([C@@H]1CN3CCN(C(=O)C4CCc5nc(-n6cnnn6)ccc54)C[C@H]3CO1)c2C1CC1` (some centres unmarked) [Example 95], for which, in assay [1], the IC50 is 180 nM.
